The text below walks through data of publication PMC6051542 (MedChemComm, 2017).

The structures appear in SMILES notation. ≈ marks a conversion by molar mass, not a printed value. Like-named read-outs stand apart in the source and are kept apart here. Bounds are passed on as bounds.

One experiment has as its system gram-positive strains. The experiment in a line: MIC against all 9 gram-positive strains tested. Format: cell-based. Particulars: read-out: MIC values against all 9 gram-positive strains tested.
For experiment [1], the system named is E. coli, Edwardsiella tarda, S. enterica enterica Typhimurium, and S. flexneri. The experiment in a line: MIC against susceptible gram-negative strains. Format: cell-based. Particulars: read-out: MICs against susceptible gram-negative strains.
In the next experiment the test system is E. coli BW25113. Particulars: wild-type E. coli BW25113; cited from earlier work.
For the next experiment, the system named is E. coli JW5503. Particulars: cited from earlier work.
Experiment [2] relates to E. coli JW5503 harboring pCA24N-gyrB. Format: cell-based.
The target of experiment [3] is DNA gyrase ATPase activity (Escherichia coli, UniProt P0AES4+P0AES6). The experiment in a line: ATPase activity of DNA gyrase. Format: biochemical, E. coli. Particulars: up to a concentration of 100 μM.
DNA gyrase ATPase activity, sequence (P0AES4 whole entry, one chain of several): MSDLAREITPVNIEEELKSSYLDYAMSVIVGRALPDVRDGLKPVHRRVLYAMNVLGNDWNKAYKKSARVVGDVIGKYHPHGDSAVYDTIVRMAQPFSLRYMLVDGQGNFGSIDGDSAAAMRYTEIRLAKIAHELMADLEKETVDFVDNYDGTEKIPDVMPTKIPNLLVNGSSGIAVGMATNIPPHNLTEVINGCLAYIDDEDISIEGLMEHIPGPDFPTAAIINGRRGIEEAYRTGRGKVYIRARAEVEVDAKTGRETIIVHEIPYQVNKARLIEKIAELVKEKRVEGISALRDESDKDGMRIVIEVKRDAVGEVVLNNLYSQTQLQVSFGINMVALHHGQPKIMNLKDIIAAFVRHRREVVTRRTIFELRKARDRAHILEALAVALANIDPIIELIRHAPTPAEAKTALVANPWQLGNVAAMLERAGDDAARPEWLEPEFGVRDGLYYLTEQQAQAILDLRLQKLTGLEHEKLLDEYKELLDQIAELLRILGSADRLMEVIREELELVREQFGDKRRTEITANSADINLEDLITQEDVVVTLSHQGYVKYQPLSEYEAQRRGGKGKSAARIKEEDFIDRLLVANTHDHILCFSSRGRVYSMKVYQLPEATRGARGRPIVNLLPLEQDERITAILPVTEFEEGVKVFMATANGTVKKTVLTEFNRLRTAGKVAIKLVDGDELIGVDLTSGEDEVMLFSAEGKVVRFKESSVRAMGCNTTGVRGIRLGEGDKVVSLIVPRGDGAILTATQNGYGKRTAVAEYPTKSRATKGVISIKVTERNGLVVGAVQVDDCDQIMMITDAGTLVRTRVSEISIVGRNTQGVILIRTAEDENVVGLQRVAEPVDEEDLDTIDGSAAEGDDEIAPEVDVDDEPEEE
The subject of experiment [4] is E. coli cells, overexpression (gyrA/gyrB) (+/+). The experiment in a line: microbe, parasite or virus in culture. The class given is cell-based. Particulars: Escherichia coli, induction + (IPTG).
For experiment [5], the system named is gyrR strains derived from E. coli JW5503. The experiment in a line: MIC against the five gyrR strains derived from E. coli JW5503. Format: cell-based. The note with it: Escherichia coli, read-out: MIC against gyrR strains.
For the next experiment, the system named is E. coli cells. The note with it: cited from earlier work.

As to `Cc1ccc(C(F)(F)F)cc1S(=O)(=O)N[C@@H]1CCN(Cc2ccc(OC3CC3)cc2)C1` [Compound 4, (R)-N-(1-(4-cyclopropoxybenzyl)pyrrolidin-3-yl)-2-methyl-5-(trifluoromethyl)benzenesulfonamide], the results for the MIC (with gram-positive strains; in experiment [1]) were 4 to 16 µg/mL (≈ 8.8 to 35.2 µM) and 2 to 16 µg/mL (≈ 4.4 to 35.2 µM), respectively.

For the compound `Cc1ccc(F)cc1S(=O)(=O)N[C@@H]1CCN(Cc2ccc(-c3ccccc3)cc2)C1` [Compound 8, gyramide C], the MIC with E. coli BW25113 was above 160 µg/mL; in the experiment with E. coli JW5503 it was 0.1 µg/mL (≈ 0.236 µM).

Consider `CO[C@@H]1[C@@H](OC(N)=O)[C@@H](O)[C@H](Oc2ccc3c(O)c(NC(=O)c4ccc(O)c(CC=C(C)C)c4)c(=O)oc3c2C)OC1(C)C` [Compound 2, Novobiocin], for which, in experiment [2], the “highest concentration at which cultures grew” value came to 51 µg/mL.

For `N#Cc1cccc(S(=O)(=O)N[C@@H]2CCN(Cc3ccc(-c4ccccc4)cc3)C2)c1` [Compound 3, (R)-N-(1-([1,1′-biphenyl]-4-ylmethyl)pyrrolidin-3-yl)-3-cyanobenzenesulfonamide], the “inhibition of ATPase activity” value in [3] is reported as “did not inhibit the ATPase activity”. For the same compound, the MIC in experiment [1] was in the range of 2 to 16 µg/mL (≈ 4.79 to 38.3 µM).

Consider `Cc1ccc(C#N)cc1S(=O)(=O)N[C@@H]1CCN(Cc2ccc(-c3ccccc3)cc2)C1` [Compound 5, (R)-N-(1-([1,1′-biphenyl]-4-ylmethyl)pyrrolidin-3-yl)-5-cyano-2-methylbenzenesulfonamide], for which the MIC in experiment [1] fell in the range of 2 to 16 µg/mL (≈ 4.63 to 37.1 µM).

On to `O=C(O)c1cn(C2CC2)c2cc(N3CCNCC3)c(F)cc2c1=O` [Compound 1, Ciprofloxacin], for which the “inhibition of ATPase activity” value in experiment [3] is on record as “did not observe a decrease in ATPase activity”. Also, the MIC in experiment [4] was 0.002 µg/mL; in [5], 1.6 to 3.2 µg/mL (≈ 4.83 to 9.66 µM); in the experiment with E. coli cells (E. coli cells before overexpression of DNA gyrase), 0.009 µg/mL (≈ 0.0272 µM); in the experiment with E. coli cells (E. coli cells with overexpression of DNA gyrase) it was 0.002 µg/mL (≈ 0.00604 µM).
